In paper PMC10283505, “CVM-1118 (foslinanib), a 2-phenyl-4-quinolone derivative, promotes apoptosis and inhibits vasculogenic mimicry via targeting TRAP1” (Pathology and Oncology Research, 2023):

Tests used:
[1] = biological target: Integrin β4 (Homo sapiens, UniProt P16144); assay: Surface plasmon resonance (Biacore); assay type: binding; conditions: Integrin β4, SPR
[2] = biological target: TGFβ1/1 (HIC5) (Homo sapiens, UniProt O43294); assay: Surface plasmon resonance (Biacore); assay type: binding; conditions: TGFβ1/1, SPR
[3] = biological target: T1, TRAP1 (Homo sapiens, UniProt Q12931); assay: In vitro ATPase assay; assay type: biochemical; conditions: data not shown
T1 sequence (Q12931 60-704): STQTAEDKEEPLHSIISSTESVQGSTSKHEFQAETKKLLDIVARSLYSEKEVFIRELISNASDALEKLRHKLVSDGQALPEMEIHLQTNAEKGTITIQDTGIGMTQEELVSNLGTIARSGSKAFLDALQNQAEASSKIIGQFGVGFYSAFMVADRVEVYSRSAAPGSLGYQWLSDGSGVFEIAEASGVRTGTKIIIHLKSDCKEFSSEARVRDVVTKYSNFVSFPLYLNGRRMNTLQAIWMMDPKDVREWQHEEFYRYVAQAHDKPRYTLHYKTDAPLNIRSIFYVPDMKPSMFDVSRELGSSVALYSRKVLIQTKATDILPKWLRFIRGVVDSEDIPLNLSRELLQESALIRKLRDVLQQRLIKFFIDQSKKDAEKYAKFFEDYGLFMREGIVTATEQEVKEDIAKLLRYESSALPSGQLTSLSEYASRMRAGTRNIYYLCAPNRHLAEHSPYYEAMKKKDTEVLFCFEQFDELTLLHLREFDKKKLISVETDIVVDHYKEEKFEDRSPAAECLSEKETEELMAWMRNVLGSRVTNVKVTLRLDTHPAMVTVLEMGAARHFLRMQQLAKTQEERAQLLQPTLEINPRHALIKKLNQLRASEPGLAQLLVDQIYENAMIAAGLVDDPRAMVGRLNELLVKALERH

[4] = tested on: NCI/ADR-RES; assay: NCI 60 cytotoxicity screening; assay type: cell-based; conditions: Homo sapiens, Ovarian
[5] = tested on: UACC-62; assay: NCI 60 cytotoxicity screening; assay type: cell-based; conditions: Homo sapiens; UACC-62, Melanoma
[6] = tested on: UACC-257; assay: NCI 60 cytotoxicity screening; assay type: cell-based; conditions: Homo sapiens; UACC-257, Melanoma
[7] = tested on: NCI-H23; assay: NCI 60 cytotoxicity screening; assay type: cell-based; conditions: Homo sapiens; NCI-H23, NSCLC
[8] = tested on: HCT-15; assay: NCI 60 cytotoxicity screening; assay type: cell-based; conditions: Homo sapiens; HCT-15, Colon
[9] = tested on: EKVX; assay: NCI 60 cytotoxicity screening; assay type: cell-based; conditions: Homo sapiens, NSCLC
[10] = biological target: T1, TRAP1; assay: Western blot of TRAP1 protein level; assay type: cell-based; set-up: purchased Abcam ab123775
Procedure: The methods for detecting TRAP1 proteins were as follows: 4 × 10^5 SKOV-3 cells and 8 × 10^5 COLO-205 cells were seeded onto 6-well plates. After 18 h, the culture medium was changed to contain 50, 100, 200, and 400 nM CVM-1125, and samples were recovered for analysis at 24 or 48 h. To explore the pathway of CVM-1125 degradation of TRAP1 protein, the experimental design was as follows: 1 × 10^6 COLO-205 cells were seeded onto 6-well plates. After 18 h, the culture medium was changed to contain 200 nM CVM-1125, 25 µM chloroquine (CQ), and 2.5 µM MG132, and samples were recovered for analysis at 24 h. Cells at 80% confluence were collected with trypsin, centrifuged, and harvested by PBS into a sample buffer (1M Tris pH 6.8, 50% Glycerol, 10% SDS, 1% bromophenol blue, and 2-mercaptoethanol). Cell lysates were heated at 95°C for 10 min and loaded onto 10% SDS-PAGE. Proteins separated on the gel were transferred to a 0.45 μM PVDF membrane (Merk Milipore, IPVH00010) at 4°C overnight and was then blocked at room temperature with 5% skim milk for 30 min. The primary antibodies were diluted with 5% skim milk in PBS for β-actin (Sigma, A5441, 1:20,000) and TRAP1 (Santa Cruz, sc-13557, 1:100) and incubated for 2 h at room temperature. […]

Sequence of Integrin β4 (P16144 28-1822): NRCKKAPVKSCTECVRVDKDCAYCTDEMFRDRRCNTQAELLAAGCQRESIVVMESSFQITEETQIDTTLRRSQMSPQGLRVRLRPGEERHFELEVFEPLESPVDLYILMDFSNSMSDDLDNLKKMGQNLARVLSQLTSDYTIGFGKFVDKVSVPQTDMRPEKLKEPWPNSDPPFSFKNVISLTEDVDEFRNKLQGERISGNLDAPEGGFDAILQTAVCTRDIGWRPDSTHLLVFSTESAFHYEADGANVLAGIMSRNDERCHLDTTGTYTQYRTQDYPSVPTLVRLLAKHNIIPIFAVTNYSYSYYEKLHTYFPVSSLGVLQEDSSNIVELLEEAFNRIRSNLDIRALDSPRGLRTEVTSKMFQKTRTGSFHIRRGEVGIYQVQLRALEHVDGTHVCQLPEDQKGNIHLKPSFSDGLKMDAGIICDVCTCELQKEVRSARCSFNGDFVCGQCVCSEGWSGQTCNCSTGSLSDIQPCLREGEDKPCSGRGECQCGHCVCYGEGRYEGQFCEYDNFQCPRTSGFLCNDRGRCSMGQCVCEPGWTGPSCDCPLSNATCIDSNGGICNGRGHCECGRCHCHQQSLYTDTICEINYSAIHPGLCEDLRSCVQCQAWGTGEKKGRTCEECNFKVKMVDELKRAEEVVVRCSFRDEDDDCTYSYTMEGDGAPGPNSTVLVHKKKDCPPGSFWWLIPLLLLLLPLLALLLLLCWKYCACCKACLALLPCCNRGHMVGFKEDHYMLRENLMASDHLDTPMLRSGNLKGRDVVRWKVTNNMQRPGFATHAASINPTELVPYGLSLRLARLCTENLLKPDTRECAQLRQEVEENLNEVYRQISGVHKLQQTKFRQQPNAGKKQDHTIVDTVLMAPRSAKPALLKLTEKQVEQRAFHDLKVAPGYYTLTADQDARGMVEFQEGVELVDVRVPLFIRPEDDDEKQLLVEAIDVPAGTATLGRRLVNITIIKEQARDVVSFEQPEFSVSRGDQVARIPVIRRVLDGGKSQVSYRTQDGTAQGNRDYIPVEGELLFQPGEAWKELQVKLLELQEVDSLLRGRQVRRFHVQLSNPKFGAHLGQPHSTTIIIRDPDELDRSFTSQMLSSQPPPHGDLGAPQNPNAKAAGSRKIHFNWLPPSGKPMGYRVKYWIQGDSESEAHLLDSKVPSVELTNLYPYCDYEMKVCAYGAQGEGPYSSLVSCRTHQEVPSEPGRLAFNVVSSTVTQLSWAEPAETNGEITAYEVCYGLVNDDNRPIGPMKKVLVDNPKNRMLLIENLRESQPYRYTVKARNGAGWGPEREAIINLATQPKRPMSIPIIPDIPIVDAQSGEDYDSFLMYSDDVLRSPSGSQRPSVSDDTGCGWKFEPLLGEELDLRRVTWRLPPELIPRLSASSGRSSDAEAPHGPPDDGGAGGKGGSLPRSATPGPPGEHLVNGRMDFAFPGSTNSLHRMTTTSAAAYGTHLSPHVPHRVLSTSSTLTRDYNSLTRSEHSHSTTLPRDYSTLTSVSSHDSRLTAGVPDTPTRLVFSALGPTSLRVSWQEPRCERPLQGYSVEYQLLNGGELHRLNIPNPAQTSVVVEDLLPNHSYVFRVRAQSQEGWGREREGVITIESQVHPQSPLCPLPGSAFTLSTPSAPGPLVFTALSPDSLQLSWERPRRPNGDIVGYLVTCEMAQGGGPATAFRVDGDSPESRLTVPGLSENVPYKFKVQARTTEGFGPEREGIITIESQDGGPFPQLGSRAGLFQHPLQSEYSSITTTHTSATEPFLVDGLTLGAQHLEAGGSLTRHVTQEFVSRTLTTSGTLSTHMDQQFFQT
Sequence of TGFβ1/1 (HIC5) (O43294 whole entry): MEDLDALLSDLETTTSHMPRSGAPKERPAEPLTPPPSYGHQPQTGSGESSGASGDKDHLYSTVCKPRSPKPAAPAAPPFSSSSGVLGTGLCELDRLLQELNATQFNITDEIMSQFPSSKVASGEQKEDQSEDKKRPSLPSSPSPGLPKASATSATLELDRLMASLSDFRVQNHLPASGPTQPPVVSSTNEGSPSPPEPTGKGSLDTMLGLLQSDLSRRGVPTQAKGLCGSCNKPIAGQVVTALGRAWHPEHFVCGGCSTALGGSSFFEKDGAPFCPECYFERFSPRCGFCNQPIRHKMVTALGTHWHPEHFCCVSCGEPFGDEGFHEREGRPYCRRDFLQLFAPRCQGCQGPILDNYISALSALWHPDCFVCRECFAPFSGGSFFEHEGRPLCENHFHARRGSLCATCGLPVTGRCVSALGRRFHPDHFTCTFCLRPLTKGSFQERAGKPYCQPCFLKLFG

## COc1ccc2[nH]c(-c3cccc(F)c3)cc(=O)c2c1O [CVM-1125]
[1]
  Association (ka): No dose dependent interaction
  Dissociation (kd): No dose dependent interaction
  KD (kd/ka): No dose dependent interaction
[2]
  Association (ka): No dose dependent interaction
  Dissociation (kd): No dose dependent interaction
  KD (kd/ka): No dose dependent interaction
[3]
  influence on the ATPase activity of TRAP1: no influence
[4]
  GI50: 20.8 nM
[5]
  GI50: 31 nM
[6]
  GI50: 33.7 nM
[7]
  GI50: 34.5 nM
[8]
  GI50: 35.5 nM
[9]
  GI50: 46.1 nM
[10]; COLO205, 50–400 nM
  TRAP1 protein levels: reduced with increasing concentrations
[10]; SKOV3, 50–400 nM
  TRAP1 protein levels: reduced with increasing concentrations
